From patent US20050182242A1, “Global analysis of protein activities using proteome chips” (priority 2001, published 2005)

System: total yeast genomic DNA
Experiment: Yeast proteome chip probed with labeled genomic DNA
Type: binding
Details: Cy3-labeled genomic DNA, visual inspection
Description: Protein-DNA and protein-RNA interactions are important for many fundamental biological functions such as transcription regulation, chromosome segregation and maintenance, and RNA transport and processing (Williamson, 2000, Nat. Struct. Biol. 7(10):834-7). To explore the possibility of using a proteome chip to identify proteins that bind to DNA or RNA molecules, total yeast genomic DNA was labeled using Cy3-CTP and Klenow fragment, and polyA^+ was labeled using a biotinylated psoralen-derivative (31). Each probe was incubated with a different proteome chip (FIG. 3A).
The protein-nucleic acid interaction was assayed as follows. The nucleic acid robes were labeled as described by Winzeler et al. (1999, Science 285:901). Blocked proteome chips were washed three to five times in PBS buffer, and the extra liquid on the glass surface was removed by tapping the slides vertically on a KIMWIPE™. 200 μl of labeled nuclei acid probe ([…] poly(dC/dG); 100-300 mM NaCl; 50-300 mM HEPES, pH 7.0-8.5; 10 mM MgCl2) was added to the proteome chip and immediately covered by a hydrophobic plastic cover slip (GRACE BIO-LABS™, USA). After trapped air bubbles were removed, the chip was incubated in a humidity chamber in the dark at room temperature (“RT”) for one hour. To remove the cover slip, the chip was immersed into large volume of PBS buffer(>50 ml), so that the slip would float away. […]

## Gcd11p: gamma subunit of translation initiation factor eIF2
  binding of genomic DNA probe: tested positive
